From paper PMC8264504, “Identification of Koumine as a Translocator Protein 18 kDa Positive Allosteric Modulator for the Treatment of Inflammatory and Neuropathic Pain” (Frontiers in Pharmacology, 2021)
Where two headings read alike, the source gives them in different places.

Legend:
[1] = tested on: T98G human glioblastoma cells; assay: Cell viability assay (CellTiter Blue); type: cell-based; settings: same dosing regimen as proliferation, 48 h
Experimental: T98G cells were plated and treated as in the proliferation assays. After 48 h of drug exposure, CellTiter Blue Reagent (Promega) was added to the cells and incubated for 4 h in 5% CO2 at 37°C. Absorption was measured at 570 nm using 600 nm as a reference wavelength.

[2] = biological target: T1, mouse TSPO recombinant protein (TSPO proteoliposomes) (Mus musculus, UniProt P50637); assay: SPR single-cycle kinetics on TSPO proteoliposomes; type: binding
T1 construct: His tag; made in house; host or cells: Escherichia coli BL21(DE3) pLysS, pET15b vector
Experimental: (§1) Cells of the BL21(DE3) pLysS Escherichia coli strain were transformed with the pET15b vector, from which the expression of mouse TSPO recombinant protein was induced by 1 mM isopropyl-1-thiol-β-D-galactopyranoside as previously described ([Robert and Lacapère, 2010]; [Senicourt et al., 2017]). Cells were harvested and resuspended in lysis buffer (150 mM NaCl and 50 mM HEPES-Na, pH 7.8) with the addition of 1 mg/ml lysozyme and sonicated thoroughly. The lysate was centrifuged at 15,000 g at 4°C for 20 min to pellet the insoluble inclusion bodies. The final pellet of inclusion bodies was solubilized in binding buffer (150 mM NaCl, 50 mM HEPES-Na, 1% SDS (wt/vol), pH 7.8) and was purified by the Ni-NTA gravity flow column.
Proteoliposomes composed of DMPC/DMPE (9:1) and TSPO in a 5:1 (wt/wt) ratio were prepared using a previously described method ([Ostuni et al., 2010]). Liposomes composed of DMPC/DMPE (9:1) were prepared as published previously ([Hatty et al., 2014]). A few milligrams of DMPC and DMPE were weighed into a round-bottom glass flask, and chloroform and methanol were added to dissolve them. A thin lipid film was prepared by a rotary evaporator and dried under vacuum for at least 3 h to remove all traces of chloroform and methanol. The dry lipid film was resuspended in PBS buffer (10 mM phosphate buffer, 2.7 mM KCl, 137 mM NaCl) to a concentration of 1 mg/ml, hydrated for 2 h at 45–55°C, and finally sonicated to produce small unilamellar vesicles. The suspension of small unilamellar vesicles was then kept at 45°C for use on the same day. The sizes of proteoliposomes and liposomes were determined by dynamic light scattering using Nicomp 380 Z3000 instrument (Parficle Sizing Systems, America).
SPR analyses were performed at 25°C with a Biacore T200 instrument. For proteoliposomes and liposomes (reference), they were immobilized on a series S L1 sensor chips. It is possible that the repeated regeneration steps in the multicycle kinetics process impairs the activity of TSPO proteoliposomes, thus we were unable to use multicycle kinetics to effectively determine the affinity of TSPO and its ligands. Therefore, the single cycle kinetics, which assumes to be as robust as the classical multicycle kinetics for measuring affinity, was used. Kinetic rate constants for the various analytes were determined using single cycle protocols where five serial 2-fold dilutions of the analytes were injected for 180 s without intervening regeneration, followed by a 300 s dissociation phase after the last injection. Interactions were measured at 30 μl/min. PBS, with addition of 1% DMSO (pH 7.4), was used as running buffer. […] For mouse TSPO in a lipid-free environment, affinity was measured according to established methods with minor modifications ([Zhang et al., 2015]). […]

[3] = biological target: T2, mouse TSPO recombinant protein (Mus musculus, UniProt P50637); assay: SPR multicycle kinetics, mouse TSPO in a lipid-free environment; type: binding; settings: CM5 chip, anti-His capture, read-out: affinity to mouse TSPO
T2 construct: made in house; host or cells: Escherichia coli BL21(DE3) pLysS, pET15b vector
Experimental: as §1
SPR analyses were performed at 25°C with a Biacore T200 instrument. For proteoliposomes and liposomes (reference), they were immobilized on a series S L1 sensor chips. It is possible that the repeated regeneration steps in the multicycle kinetics process impairs the activity of TSPO proteoliposomes, thus we were unable to use multicycle kinetics to effectively determine the affinity of TSPO and its ligands. Therefore, the single cycle kinetics, which assumes to be as robust as the classical multicycle kinetics for measuring affinity, was used. Kinetic rate constants for the various analytes were determined using single cycle protocols where five serial 2-fold dilutions of the analytes were injected for 180 s without intervening regeneration, followed by a 300 s dissociation phase after the last injection. Interactions were measured at 30 μl/min. PBS, with addition of 1% DMSO (pH 7.4), was used as running buffer. Three consecutive 1 min injections with 10 μl/min of glycine HCl 3.0 at the end of each single-cycle kinetics regenerated the chip. For mouse TSPO in a lipid-free environment, affinity was measured according to established methods with minor modifications ([Zhang et al., 2015]). Briefly, HBS-EP buffer was used as the running buffer. […]

Row | SMILES | cell viability [1] | Kd ([2]; SPR single-cycle kinetics, TSPO proteoliposomes on L1 chip, 25°C, Langmuir 1:1 fit, read-out: KD) | Kd [3] | Kd [2]
1 | CN1C(=O)CN=C(c2ccc(Cl)cc2)c2cc(Cl)ccc21 [Ro5-4864, reference compound] | not significantly affected | 0.00206 ± 0.00011 µM | 170 ± 6.07 µM | 
2 | C=C[C@@]12CN(C)[C@H]3C[C@]14C(=Nc1ccccc14)[C@H]1C[C@@H]2[C@@H]3CO1 [koumine] | not significantly affected |  | 97.4 ± 1.76 µM | 0.00086 ± 7e-05 µM
